Earlier results on one compound are cited in PubChem BioAssay AID1259409 (Chemical Carcinogenesis Research Information System (CCRIS), 2018).

The subject of this data set is rodent chemically induced tumor inhibition, incidence and multiplicity. The data set can be described thus: CCRIS tumor inhibitor studies.

Take `CC/C(=C(\c1ccccc1)c1ccc(OCCN(C)C)cc1)c1ccccc1`: the “tumour outcome (control, treated, inhibition, significance)” value (Carcinogen: 1,2-DIMETHYLHYDRAZINE HYDROCHLORIDE, 306-37-6, Dose [Inhibitor]: 0, 0.5 UG/G/D IN DIET FOR 28 WK (STUDY DURATION: 28 WK), Route [Inhibitor]: ORAL, Species: RAT, Strain/Sex: SPRAGUE-DAWLEY/FEMALE, Target Tissue: Type of Lesion: COLON: TUMOR, Dose [Carcinogen]: 20 MG/KG BW 1/WK FOR 28 WK, Promoter: NONE USED) is 26/36 (72%), 17/33 (52%), 28%, p<0.001; the “tumour outcome (control, treated, inhibition, significance)” value (Carcinogen: 3-METHYLCHOLANTHRENE, 56-49-5, Dose [Inhibitor]: 0, 50 UG/KG FOR DURATION OF STUDY (STUDY DURATION: LIFETIME), Route [Inhibitor]: SUBCUTANEOUS, Species: MOUSE, Strain/Sex: SWISS/FEMALE, Target Tissue: Type of Lesion: CERVIX: CARCINOMA, Dose [Carcinogen]: CARCINOGEN AND BEESWAX (1:3) IMPREGNATED THREAD INSERTED IN THE CANAL OF THE UTERINE CERVIX, Promoter: NONE USED) was 60%, 30%, 50%, p<0.01; the “tumour outcome (control, treated, inhibition, significance)” value (Carcinogen: 3-METHYLCHOLANTHRENE, 56-49-5, Dose [Inhibitor]: 0, 50 UG/KG GIVEN TO OOPHERECTOMIZED MICE 3/WK FOR DURATION OF STUDY (STUDY DURATION: LIFETIME), Route [Inhibitor]: SUBCUTANEOUS, Species: MOUSE, Strain/Sex: SWISS/FEMALE, Target Tissue: Type of Lesion: CERVIX: CARCINOMA, Dose [Carcinogen]: CARCINOGEN AND BEESWAX (1:3) IMPREGNATED THREAD INSERTED IN THE CANAL OF THE UTERINE CERVIX, Promoter: NONE USED) is reported as 62%, 27%, 56%, p<0.01; the “tumour outcome (control, treated, inhibition, significance)” value (Carcinogen: 7,12-DIMETHYLBENZ[A]ANTHRACENE (57-97-6), Dose [Inhibitor]: 0.125 MG/KG DIET FOR 17 WKS (STUDY DURATION: 17 WKS), Route [Inhibitor]: DIET, Species: RAT, Strain/Sex: SPRAGUE-DAWLEY/FEMALE (20,18)/(20,18), Target Tissue: Type of Lesion: MAMMARY, Dose [Carcinogen]: 12.5 MG ONCE 1 WK AFTER START OF DIETS (STUDY DURATION: 17 WKS)) was 95%, 73%, 23%, p=0.015; the “tumour outcome (control, treated, inhibition, significance)” value (Carcinogen: 7,12-DIMETHYLBENZ[A]ANTHRACENE (DMBA) (57-97-6), Dose [Inhibitor]: 50 MG/KG/D FOR 37 WK (STUDY DURATION: 37 WK), Route [Inhibitor]: ORAL GAVAGE, Species: MOUSE, Strain/Sex: SENCAR/FEMALE, Target Tissue: Type of Lesion: MAMMARY: CARCINOMA, Dose [Carcinogen]: 20 UG/D FOR 6 WKS (STUDY DURATION: 37 WKS), Promoter: MEDROXYPROGESTERONE ACETATE (71-58-9)) is 10/21 (48%); 0%, 100%, p=0.0004; the “tumour outcome (control, treated, inhibition, significance)” value (Carcinogen: 7,12-DIMETHYLBENZ[A]ANTHRACENE (DMBA) [57-97-6], Dose [Inhibitor]: 50 MG/KG/D FOR 52 WK (STUDY DURATION: 52 WK), Route [Inhibitor]: ORAL GAVAGE, Species: MOUSE, Strain/Sex: SENCAR/FEMALE, Target Tissue: Type of Lesion: MAMMARY: CARCINOMA, Dose [Carcinogen]: 20 UG/D FOR 6 WKS, Promoter: MEDROXYPROGESTERONE ACETATE (71-58-9)) is recorded as 13/23 (57%); 0/20 (0%), 100%, p=0.00003. In addition, the “tumour outcome (control, treated, inhibition, significance)” value by setting is: (Carcinogen: 17 BETA-ESTRADIOL, 50-28-2, Dose [Inhibitor]: 25 MG PELLETS CONTAINING 90% TAMOXIFEN ADMINISTERED ONCE AT BEGINNING OF STUDY AND ONCE AT 3.5 MO, ADMINISTERED CONCURRE, Route [Inhibitor]: SUBCUTANEOUS IMPLANT, Species: HAMSTER, Strain/Sex: SYRIAN/MALE, Target Tissue: Type of Lesion: KIDNEY: RENAL CARCINOMA, Dose [Carcinogen]: 25 MG PELLETS CONTAINING 90% ESTRADIOL ONCE AT BEGINNING OF STUDY AND ONCE AT 3.5 MO, Promoter: NONE USED) 3/3 (100%), 2/8 (25%), 75%, not calculated; (Carcinogen: ETHYL METHANESULFONATE, 62-50-0, Dose [Inhibitor]: 0, 50 MG/KG 1/WK FOR 4 WK BEGINNING POST CARCINOGEN TREATMENT (STUDY DURATION: 30 WK), Route [Inhibitor]: SUBCUTANEOUS, Species: RAT, Strain/Sex: WISTAR/FEMALE, Target Tissue: Type of Lesion: MAMMARY GLAND: CARCINOMA, Dose [Carcinogen]: 0.01 MOLAR SOLUTION IN DRINKING WATER FOR 12 WK, Promoter: NONE USED) 100%, 100%, 0%, not significant; (Carcinogen: ETHYL METHANESULFONATE, 62-50-0, Dose [Inhibitor]: 0, 50 MG/KG 1/WK FOR 4 WK CONCOMITANTLY WITH CARCINOGEN TREATMENT (STUDY DURATION: 30 WK), Route [Inhibitor]: SUBCUTANEOUS, Species: RAT, Strain/Sex: WISTAR/FEMALE, Target Tissue: Type of Lesion: MAMMARY GLAND: CARCINOMA, Dose [Carcinogen]: 0.01 MOLAR SOLUTION IN DRINKING WATER FOR 12 WK, Promoter: NONE USED) 100%, 50%, 50%, p<0.01; (Carcinogen: ETHYLNITROSOUREA [759-73-9], Dose [Inhibitor]: 420 MG/K DIET FOR 60 WK (STUDY DURATION: 60 WK), Route [Inhibitor]: DIET, Species: MOUSE, Strain/Sex: B6C3F1/MALE (?,44)/(?,47), Target Tissue: Type of Lesion: LIVER: HEPATOCELLULAR CARCINOMA, Dose [Carcinogen]: 120 UG/KG ONCE) 11/44 (25%), 2/47 (4%), 84%, p<0.001; (Carcinogen: N-ETHYL-N'-NITRO-N-NITROSOGUANADINE, 4245-77-6, Dose [Inhibitor]: 0, 70 MG/KG BW IN CHOLESTEROL IMPLANTED 1 WK POST CARCINOGEN DOSE, IMPLANTS REPLACED AT 6 TO 8 WK INTERVALS FOR THE DURA, Route [Inhibitor]: SUBCUTANEOUS IMPLANT, Species: RAT, Strain/Sex: DONRYU/FEMALE, Target Tissue: Type of Lesion: UTERUS: ADENOCARCINOMA, Dose [Carcinogen]: 20 MG/KG BW ONCE, Promoter: NONE USED) 9/29 (31%), 0/30 (0%), 100%, not calculated; (Carcinogen: N-ETHYL-N'-NITRO-N-NITROSOGUANADINE, 4245-77-6, Dose [Inhibitor]: 0, 70 MG/KG BW IN CHOLESTEROL IMPLANTED 20 WKS POST CARCINOGEN DOSE, IMPLANTS REPLACED AT 6 TO 8 WK INTERVALS FOR DURATI, Route [Inhibitor]: SUBCUTANEOUS IMPLANT, Species: RAT, Strain/Sex: DONYRU/FEMALE, Target Tissue: Type of Lesion: UTERUS: ADENOCARCINOMA, Dose [Carcinogen]: 20 MG/KG BW ONCE, Promoter: NONE USED) 9/29 (31%), 0/29 (0%), 100%, not calculated. The “tumour outcome (control, treated, inhibition, significance)” value is 68%, 62%, 9%, not significant (Carcinogen: N-METHYL-N'-NITROSOUREA, 684-93-5, Dose [Inhibitor]: 0, 0.125 MG/KG IN DIET FOR DURATION OF STUDY BEGINNING 60 D PRIOR TO CARCINOGEN DOSE (STUDY DURATION: 240 D), Route [Inhibitor]: ORAL, Species: RAT, Strain/Sex: SPRAGUE-DAWLEY/FEMALE, Target Tissue: Type of Lesion: MAMMARY GLAND: TUMOR, Dose [Carcinogen]: 50 MG/KG BW ONCE, Promoter: NONE USED); 80%, 25%, 69%, p<0.005 (Carcinogen: N-METHYL-N'-NITROSOUREA, 684-93-5, Dose [Inhibitor]: 0, 0.25 MG/KG IN DIET FOR DURATION OF STUDY BEGINNING 60 D PRIOR TO CARCINOGEN DOSE (STUDY DURATION: 240 D), Route [Inhibitor]: ORAL, Species: RAT, Strain/Sex: SPRAGUE-DAWLEY/FEMALE, Target Tissue: Type of Lesion: MAMMARY GLAND: TUMOR, Dose [Carcinogen]: 50 MG/KG BW ONCE, Promoter: NONE USED); 100%, 100%, 0%, not significant (Carcinogen: N-METHYL-N-NITROSOUREA, 684-93-5, Dose [Inhibitor]: 0, 0.2 MG/KG IN DIET FOR THE DURATION OF STUDY BEGINNING 7 D PRIOR TO CARCINOGEN DOSE (STUDY DURATION: 187 D), Route [Inhibitor]: ORAL, Species: RAT, Strain/Sex: SPRAGUE-DAWLEY/FEMALE, Target Tissue: Type of Lesion: MAMMARY GLAND: TUMOR, Dose [Carcinogen]: 50 MG/KG BW ONCE, Promoter: NONE USED).
